# Experimental data: article PMC10836395, “Investigation of how gate residues in the main channel affect the catalytic activity of Scytalidium thermophilum catalase” (Acta Crystallographica. Section D, Structural Biology, 2024)
# Like-named read-outs stand apart in the source and are kept apart here. Marks after values point to notes of the source that are not given here.
# What was measured:
# [1] = biological target: T1, CATPO T188A variant (Scytalidium thermophilum (Humicola insolens), UniProt M4GGR5, T207A); test: biochemical
# [2] = biological target: T2, CATPO T188D variant (Scytalidium thermophilum (Humicola insolens), UniProt M4GGR5, T207D); test: biochemical
# [3] = biological target: T3, CATPO T188I variant (Scytalidium thermophilum (Humicola insolens), UniProt M4GGR5, T207I); type: biochemical; conditions: for K m: pH 7.0 (ABTS pH 5.0), 60°C
# [4] = biological target: T4, CATPO E484D variant (Scytalidium thermophilum (Humicola insolens), UniProt M4GGR5, E503D); test: biochemical
# [5] = biological target: T3, CATPO T188I variant; test: biochemical
# [6] = biological target: T1, CATPO T188A variant; type: biochemical; conditions: for K m: pH 7.0 (ABTS pH 5.0), 60°C
# [7] = biological target: T5, CATPO E484A variant (Scytalidium thermophilum (Humicola insolens), UniProt M4GGR5, E503A); test: biochemical
# [8] = biological target: T6, CATPO E484I variant (Scytalidium thermophilum (Humicola insolens), UniProt M4GGR5, E503I); type: biochemical; conditions: for K m: pH 7.0 (ABTS pH 5.0), 60°C
# [9] = biological target: T7, CATPO T188F variant (Scytalidium thermophilum (Humicola insolens), UniProt M4GGR5, T207F); test: biochemical
# [10] = biological target: T8, CATPO (Scytalidium thermophilum (Humicola insolens), UniProt M4GGR5); test: Inhibition of catechol oxidation; type: biochemical
# [11] = biological target: T2, CATPO T188D variant; type: biochemical; conditions: for K m: pH 7.0 (ABTS pH 5.0), 60°C
# [12] = biological target: T5, CATPO E484A variant; test: Substrate-specificity analysis of the phenol oxidase activity; type: biochemical; conditions: for K m: pH 7.0 (ABTS pH 5.0), 60°C
# [13] = biological target: T8, CATPO; test: as above; type: biochemical
# [14] = biological target: T6, CATPO E484I variant; test: biochemical
# [15] = biological target: T7, CATPO T188F variant; type: biochemical; conditions: for K m: pH 7.0 (ABTS pH 5.0), 60°C
# [16] = biological target: T4, CATPO E484D variant; type: biochemical; conditions: for K m: pH 7.0 (ABTS pH 5.0), 60°C
# [17] = substrate: Oc1ccccc1O; test: Spectrophotometric catechol oxidation assay at 420 nm, pH 7.0 and 60 °C; values not normalized to heme content.; type: biochemical
# Protocol: (§1) All inhibition assays were performed in triplicate.
# Tabl e S1 Comparison of gate residues at the entrance of the main channel among large subunit […]
# PDB ID e Organism Gate residues
# Tabl e S2 K i neti c const ant s
# **Catalase activity **Phenol oxidase activity
# *KM-app kcat kcat/*KM-app KM kcat kcat/KM
# (mM) (s-1) (s-1 M-1) (mM) (s-1) (s-1 M-1) Rz Heme
# RZ = A407/A280. T he values were normalized to heme content in each CAT PO variant. T he values in parentheses are for unnor malized val ues a nd shaded in gre y for ease of vie wi ng. *KM-app is the H2O2 concentratio n at Vmax/2 […]
# Michaelis–Menten kinetics (Switala & Loewen, 2002).
# **One unit of catalase is defined as the amo unt that catalyses the degradation o f 1 µmol H2O2 in 1 min. One unit of phenol oxidase corresponds to the enzyme catalysing the formation of 1 nmol of product per minute.
# [18] = substrate: Cc1ccc(O)c(O)c1; test: Spectrophotometric phenol oxidase assay without H2O2 at pH 7.0 and 60 °C, initial rates fitted to the Michaelis-Menten equation.; type: biochemical
# Protocol: as §1
# [19] = substrate: Oc1ccc(O)cc1; test: as above; type: biochemical
# Protocol: as §1
# [20] = substrate: CC(C)(C)c1ccc(O)c(O)c1; test: as above; type: biochemical
# Protocol: as §1
# [21] = substrate: CCn1c(=NN=c2sc3cc(S(=O)(=O)O)ccc3n2CC)sc2cc(S(=O)(=O)O)ccc21; test: purified protein, by the assay type; conditions: 60.0 °C
# [22] = substrate: Oc1ccccc1O; test: Phenol oxidase activity (H2O2-independent) measured spectrophotometrically by product formation at pH 7.0, 60 C, Michaelis-Menten fit.; type: biochemical
# Protocol: as §1
# [23] = catechol oxidation by CATPO, catechol 1 to 100 mM, read-out: K i
# T6 sequence (M4GGR5 entry or part of it E503I): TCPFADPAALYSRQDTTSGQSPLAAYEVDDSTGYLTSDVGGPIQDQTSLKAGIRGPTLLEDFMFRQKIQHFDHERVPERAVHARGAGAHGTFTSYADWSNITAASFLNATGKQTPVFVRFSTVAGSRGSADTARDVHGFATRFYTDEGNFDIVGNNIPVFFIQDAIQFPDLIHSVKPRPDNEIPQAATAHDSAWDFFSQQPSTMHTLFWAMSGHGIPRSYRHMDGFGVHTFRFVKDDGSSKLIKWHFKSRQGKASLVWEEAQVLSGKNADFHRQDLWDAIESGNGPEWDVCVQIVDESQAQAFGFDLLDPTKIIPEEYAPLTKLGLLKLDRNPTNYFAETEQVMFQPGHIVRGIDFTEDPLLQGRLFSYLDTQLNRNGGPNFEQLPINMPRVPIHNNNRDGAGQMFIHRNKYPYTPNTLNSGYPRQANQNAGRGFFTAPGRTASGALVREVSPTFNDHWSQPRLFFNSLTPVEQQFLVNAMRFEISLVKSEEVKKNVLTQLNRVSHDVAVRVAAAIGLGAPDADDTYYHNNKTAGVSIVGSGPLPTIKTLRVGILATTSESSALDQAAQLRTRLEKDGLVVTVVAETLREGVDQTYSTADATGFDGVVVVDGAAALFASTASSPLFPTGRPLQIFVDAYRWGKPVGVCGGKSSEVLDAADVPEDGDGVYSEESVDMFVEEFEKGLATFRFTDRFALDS
# T2 sequence (M4GGR5 entry or part of it T207D): as the sequence (M4GGR5 entry or part of it E503I) above
# T7 sequence (M4GGR5 entry or part of it T207F): as the sequence (M4GGR5 entry or part of it E503I) above
# T5 sequence (M4GGR5 entry or part of it E503A): as the sequence (M4GGR5 entry or part of it E503I) above
# T1 sequence (M4GGR5 entry or part of it T207A): as the sequence (M4GGR5 entry or part of it E503I) above
# T3 sequence (M4GGR5 entry or part of it T207I): as the sequence (M4GGR5 entry or part of it E503I) above
# T8 sequence (M4GGR5 entry or part of it): as the sequence (M4GGR5 entry or part of it E503I) above
# T4 sequence (M4GGR5 entry or part of it E503D): as the sequence (M4GGR5 entry or part of it E503I) above
Molecule,Ki [1],Ki [2],V max [3],k cat/K m [3],K m [3],Ki [4],Ki [5],V max [6],k cat/K m [6],K m [6],Ki [7],V max [8],k cat/K m [8],K m [8],Ki [9],V max [11],k cat/K m [11],K m [11],V max [12],k cat/K m [12],also measured
"CC(C)(C)c1ccc(O)c(O)c1 [1,4-tert-Butylcatechol, 4-tert-butylcatechol]",2.1 ± 0.1 mM,49 ± 3.2 mM,30500 ± 650 mM/min,4900 ± 410 s^−1 M^−1 (×10^2),35 ± 0.5 mM,2.2 ± 0.5 mM,53 ± 4.5 mM,19400 ± 568 mM/min,1460 ± 150 s^−1 M^−1 (×10^2),37 ± 1.0 mM,67 ± 7 mM,28600 ± 430 mM/min,4450 ± 66 s^−1 M^−1 (×10^2),37 ± 0.4 mM,59 ± 4.5 mM,18000 ± 500 mM/min,6590 ± 150 s^−1 M^−1 (×10^2),38 ± 0.5 mM,65000 ± 745 mM/min,10000 ± 65 s^−1 M^−1 (×10^2),"Ki [10, 23]: 2.1 ± 0.8 mM; K m [12]: 33 ± 0.5 mM; V max [13]: 20000 ± 362 mM/min; k cat/K m [13]: 1240 ± 90 s^−1 M^−1 (×10^2); Ki [14]: 50 ± 1.5 mM; V max [15]: 41600 ± 340 mM/min; k cat/K m [15]: 5230 ± 145 s^−1 M^−1 (×10^2); K m [15]: 34 ± 0.4 mM; V max [16]: 18800 ± 144 mM/min; k cat/K m [16]: 1300 ± 100 s^−1 M^−1 (×10^2); K m [16]: 38 ± 0.5 mM"
"Cc1ccc(O)c(O)c1 [4-Methylcatechol, 4-methylcatechol]",1.5 ± 0.4 mM,50 ± 2.5 mM,43000 ± 900 mM/min,6600 ± 600 s^−1 M^−1 (×10^2),34 ± 1.2 mM,1.5 ± 0.1 mM,40 ± 2.4 mM,21000 ± 880 mM/min,1640 ± 210 s^−1 M^−1 (×10^2),35 ± 1.0 mM,55 ± 5 mM,41500 ± 840 mM/min,5480 ± 80 s^−1 M^−1 (×10^2),35 ± 0.7 mM,45 ± 4.8 mM,28000 ± 970 mM/min,7620 ± 100 s^−1 M^−1 (×10^2),30 ± 0.1 mM,75500 ± 550 mM/min,10100 ± 90 s^−1 M^−1 (×10^2),"Ki [10, 23]: 1.5 ± 0.4 mM; K m [12]: 33 ± 1.0 mM; V max [13]: 21320 ± 845 mM/min; k cat/K m [13]: 1580 ± 110 s^−1 M^−1 (×10^2); Ki [14]: 46 ± 2 mM; V max [15]: 54150 ± 800 mM/min; k cat/K m [15]: 6570 ± 560 s^−1 M^−1 (×10^2); K m [15]: 32 ± 1.0 mM; V max [16]: 20600 ± 712 mM/min; k cat/K m [16]: 1500 ± 88 s^−1 M^−1 (×10^2); K m [16]: 36 ± 0.1 mM"
"Oc1ccc(O)cc1 [Hydroquinone, p-hydroquinone]",8.6 ± 0.6 mM,66 ± 5.5 mM,11000 ± 110 mM/min,490 ± 78 s^−1 M^−1 (×10^2),44 ± 0.4 mM,8.5 ± 1.4 mM,70 ± 4 mM,9850 ± 85 mM/min,300 ± 30 s^−1 M^−1 (×10^2),46 ± 0.4 mM,81 ± 4.7 mM,10000 ± 100 mM/min,460 ± 20 s^−1 M^−1 (×10^2),45 ± 1.3 mM,76 ± 5.1 mM,9600 ± 65 mM/min,480 ± 64 s^−1 M^−1 (×10^2),46 ± 1.0 mM,17800 ± 100 mM/min,600 ± 40 s^−1 M^−1 (×10^2),"Ki [10]: 8.5 ± 0.5 mM; K m [12]: 43 ± 1.2 mM; V max [13]: 10000 ± 300 mM/min; k cat/K m [13]: 750 ± 50 s^−1 M^−1 (×10^2); K m ([13]; pH 7.0 (ABTS pH 5.0), 60°C): 45 ± 1.5 mM; Ki [14]: 70 ± 3.5 mM; V max [15]: 13000 ± 140 mM/min; k cat/K m [15]: 530 ± 65 s^−1 M^−1 (×10^2); K m [15]: 42 ± 1.0 mM; V max [16]: 9900 ± 125 mM/min; k cat/K m [16]: 300 ± 50 s^−1 M^−1 (×10^2); K m [16]: 46 ± 0.8 mM"
"E484I (Mycothermus thermophilus; E503I) (protein, recombinant, pET-28-TEV-CATPO; contains heme b; Rz 0.5) TCPFADPAALYSRQDTTSGQSPLAAYEVDDSTGYLTSDVGGPIQDQTSLKAGIRGPTLLEDFMFRQKIQHFDHERVPERAVHARGAGAHGTFTSYADWSNITAASFLNATGKQTPVFVRFSTVAGSRGSADTARDVHGFATRFYTDEGNFDIVGNNIPVFFIQDAIQFPDLIHSVKPRPDNEIPQAATAHDSAWDFFSQQPSTMHTLFWAMSGHGIPRSYRHMDGFGVHTFRFVKDDGSSKLIKWHFKSRQGKASLVWEEAQVLSGKNADFHRQDLWDAIESGNGPEWDVCVQIVDESQAQAFGFDLLDPTKIIPEEYAPLTKLGLLKLDRNPTNYFAETEQVMFQPGHIVRGIDFTEDPLLQGRLFSYLDTQLNRNGGPNFEQLPINMPRVPIHNNNRDGAGQMFIHRNKYPYTPNTLNSGYPRQANQNAGRGFFTAPGRTASGALVREVSPTFNDHWSQPRLFFNSLTPVEQQFLVNAMRFIISLVKSEEVKKNVLTQLNRVSHDVAVRVAAAIGLGAPDADDTYYHNNKTAGVSIVGSGPLPTIKTLRVGILATTSESSALDQAAQLRTRLEKDGLVVTVVAETLREGVDQTYSTADATGFDGVVVVDGAAALFASTASSPLFPTGRPLQIFVDAYRWGKPVGVCGGKSSEVLDAADVPEDGDGVYSEESVDMFVEEFEKGLATFRFTDRFALDS",,,,,,,,,,,,,,,,,,,,,Km [17]: 40 mM; Km [18]: 35 ± 0.7 mM; Km [19]: 45 ± 1.3 mM; Km [20]: 37 ± 0.4 mM; Km [21]: 50 ± 0.5 mM; Km [22]: 30 ± 1.0 mM; kcat [22]: 26500 ± 1320 s⁻¹; kcat/Km [22]: 880000 ± 7200 M⁻¹ s⁻¹
"T188A (Mycothermus thermophilus; T207A) (protein, recombinant, pET-28-TEV-CATPO; contains heme d; Rz 0.7) TCPFADPAALYSRQDTTSGQSPLAAYEVDDSTGYLTSDVGGPIQDQTSLKAGIRGPTLLEDFMFRQKIQHFDHERVPERAVHARGAGAHGTFTSYADWSNITAASFLNATGKQTPVFVRFSTVAGSRGSADTARDVHGFATRFYTDEGNFDIVGNNIPVFFIQDAIQFPDLIHSVKPRPDNEIPQAAAAHDSAWDFFSQQPSTMHTLFWAMSGHGIPRSYRHMDGFGVHTFRFVKDDGSSKLIKWHFKSRQGKASLVWEEAQVLSGKNADFHRQDLWDAIESGNGPEWDVCVQIVDESQAQAFGFDLLDPTKIIPEEYAPLTKLGLLKLDRNPTNYFAETEQVMFQPGHIVRGIDFTEDPLLQGRLFSYLDTQLNRNGGPNFEQLPINMPRVPIHNNNRDGAGQMFIHRNKYPYTPNTLNSGYPRQANQNAGRGFFTAPGRTASGALVREVSPTFNDHWSQPRLFFNSLTPVEQQFLVNAMRFEISLVKSEEVKKNVLTQLNRVSHDVAVRVAAAIGLGAPDADDTYYHNNKTAGVSIVGSGPLPTIKTLRVGILATTSESSALDQAAQLRTRLEKDGLVVTVVAETLREGVDQTYSTADATGFDGVVVVDGAAALFASTASSPLFPTGRPLQIFVDAYRWGKPVGVCGGKSSEVLDAADVPEDGDGVYSEESVDMFVEEFEKGLATFRFTDRFALDS",,,,,,,,,,,,,,,,,,,,,Km [17]: 33 ± 0.5 mM; kcat [17]: 6700 ± 335 s⁻¹; kcat/Km [17]: 200000 ± 12000 M⁻¹ s⁻¹; Km [18]: 35 ± 1.0 mM; Km [19]: 46 ± 0.4 mM; Km [20]: 37 ± 1.0 mM; Km [21]: 52 ± 0.8 mM
